Data taken from ChEMBL document CHEMBL3046930, “Germination and growth inhibitors from wheat (Triticum aestivum L.) husks” (2002).
Activity calls are given as the source filed them.

How the values were obtained:
Assay type in all cases: functional
Triticum aestivum [1] = assay: Inhibition of intact Triticum aestivum (wheat) seed germination assessed as appearance of sprouts at 500 ppm after 4 days relative to wheat grains RL4137 germination
Triticum aestivum [2] = assay: Inhibition of intact Triticum aestivum (wheat) seed germination assessed as appearance of distinct rootlets at 500 ppm after 4 days relative to wheat grains RL4137 germination
Triticum aestivum [3] = assay: Growth inhibition of intact Triticum aestivum (wheat) seed assessed as appearance of sprouts at 500 ppm after 4 days relative to wheat grains RL4137 germination
Triticum aestivum [4] = assay: Growth inhibition of intact Triticum aestivum (wheat) seed assessed as appearance of distinct rootlets at 500 ppm after 4 days relative to wheat grains RL4137 germination

CC1(C)CCC[C@]2(C)OC(=O)C=C12
active: inhibition (Triticum aestivum [1]) | inhibition (Triticum aestivum [2]) | growth inhibition (GI) (Triticum aestivum [3]) | growth inhibition (GI) (Triticum aestivum [4])

CC1(C)CCC[C@@]2(C)OC(=O)C=C12
active: inhibition (Triticum aestivum [1]) | inhibition (Triticum aestivum [2]) | growth inhibition (GI) (Triticum aestivum [3]) | growth inhibition (GI) (Triticum aestivum [4])

C[C@@H](O)c1ccccc1
active: inhibition (Triticum aestivum [1]) | inhibition (Triticum aestivum [2]) | growth inhibition (GI) (Triticum aestivum [3]) | growth inhibition (GI) (Triticum aestivum [4])

CC(O)c1ccccc1 (racemic)
active: inhibition (Triticum aestivum [1]) | inhibition (Triticum aestivum [2]) | growth inhibition (GI) (Triticum aestivum [3]) | growth inhibition (GI) (Triticum aestivum [4])

C[C@H](O)c1ccccc1
active: inhibition (Triticum aestivum [1]) | inhibition (Triticum aestivum [2]) | growth inhibition (GI) (Triticum aestivum [3]) | growth inhibition (GI) (Triticum aestivum [4])

CC1(C)CCCC2(C)OC(=O)C=C12 (racemic)
active: inhibition (Triticum aestivum [1]) | inhibition (Triticum aestivum [2]) | growth inhibition (GI) (Triticum aestivum [3]) | growth inhibition (GI) (Triticum aestivum [4])
